# Assays:
# Type in all cases: cell-based, human
# [1] = system: mitochondrial membrane potential in HepG2 cells; assay: Mitochondrial membrane potential by JC-1 probe; settings: a14 50 µM
# Description: JC-1 probe was used to detect changes in MMP. Firstly, HepG2 cells (3 × 10^5 cells/well) were seeded into a six-well plate overnight for adherence, and then treated with various concentrations of a14 for 48 h. Next, the cells were treated with JC-1 (2.5 µg/ml) at 37°C for 10 min in the dark and rinsed three times with PBS. Then, the six-well plate was placed under the fluorescence microscope (excitation 480/30× nm, emission 515 nm) to observe the fluorescence color and intensity of JC-1 in the cells. In addition, HepG2 cells (3 × 10^5 cells/well) were inoculated on another six-well plate overnight to allow adherence, and then treated with a14 (50 µM) for 0, 12, 24, 36, and 48 h, adding CCCP (without a14) for 20 min to completely lose the mitochondrial membrane potential. Cells were then incubated with JC-1 (2.5 µg/ml) at 37°C in the dark for 10 min and rinsed with PBS for three times. Fluorescence intensity of residual JC-1 in cells was measured by Beckman Coulter flow cytometer (FITC, 525/40BP). The data obtained was analyzed by CytExpert 2.0 software imbedded in the flow cytometry.
# Bax in HepG2 cells = assay: Western blot, Bax; settings: different concentrations, 48 h, dose-dependent; in words
# Description: HepG2 cells (3 × 10^5 cells/well) were seeded into a six-well plate overnight for adherence, and then treated with a14 (0, 30, 40, 50, 60, and 70 µM) for 48 h. After the cells were collected by centrifugation, they were lysed with the radio immunoprecipitation assay (RIPA) buffer (high) containing 50 mM Tris (pH = 7.4), 150 mM NaCl, 1% TritonX-100, 1% sodium deoxycholate, 0.1% sodium dodecyl sulfate (SDS), 2 mM sodium pyrophosphate, 25 mM β-glycerophosphate, 1 mM ethylenediaminetetraacetic acid (EDTA), 1 mM Na3VO4, and 0.5 ug/ml leupeptin (Beijing Solarbio Science & Technology Co., Ltd.).The extract was then centrifuged at 12,000 rpm for 30 min and the total protein concentration was quantified using the BCA kit (Beijing Solarbio Science & Technology Co., Ltd.). The protein extracts were mixed with the SDS-PAGE protein loading buffer (Beijing Solarbio Science & Technology Co., Ltd.) and then boiled in 100°C water bath for 10 min. The gel was gelatinized using an SDS Gel Kit (Beijing Solarbio Science & Technology Co., Ltd.) and protein extracts were separated by protein SDS-polyacrylamide gel electrophoresis and transferred to Immobilon-NC Membrane (Beijing Solarbio Science & Technology Co., Ltd.). […]
# HepG2 cells = assay: Cell cycle arrest by PI staining, flow cytometry; settings: for G2/M: 24 h
# Description: HepG2 cells were seeded into six-well plates (3 × 10^5/well) overnight to allow the cells to grow adherently and then incubated with a14 at the concentrations of 0, 30, 40, 50, 60 or 70 µM for 24 and 48 h. After the incubation time, the cells were collected by centrifugation (1000 r/min) and fixed overnight with […] ethanol at 4°C, and then the cells were removed and washed three times with ice-cold PBS. Afterwards, the cells were added to RNase A (Beijing Solarbio Science & Technology Co., Ltd.), and incubated for 30 min at 37°C, after which PI (Beijing Solarbio Science & Technology Co., Ltd.) was added. The fluorescence was monitored by a Beckman Coulter flow cytometer (Beckman Coulter, Inc. California). Ten thousand events were collected per sample, and the data were analyzed using Modfit LT 5.0 software.
# HL-60 = assay: MTT cell viability assay, HL-60; settings: Homo sapiens, HL-60, 48 h, mean ± SE
# Description: HeLa, A549, HepG2, HL-60, and WI-38 cell lines were incubated in DMEM solution containing 10% FBS for 48 h. The incubated tumor cells were seeded into 96-well plates (5 × 10^3 cells/well) to make them attach for 12 h. Afterwards, the cells were processed with the various concentrations of the synthetic compounds and 5-FU for 48 h. After removing the cell culture supernatant, 10 µl MTT (5 mg/ml) solution was dripped into the cells to generate a formazan product, which were dissolved by dimethyl sulfoxide (DMSO) 4 h later. Multifunction microplate reader (Bio-Rad Laboratories, Shanghai, China) was adopted to measure the absorbance at the wave length of 490 nm. The IC50 (the lowest drug concentration causing 50% of the tumor cells inhibition) was then calculated using GraphPad Prism Software (version 5.02) and used to indicate the cytotoxic effect of the target compounds on the selected tumor cells.
# ROS level in HepG2 cells = assay: ROS level by DCFH-DA probe, flow cytometry; settings: a14 50 µM, 8 h (0 h: 4351.6)
# Description: HepG2 cells were seeded into six-well plates (3 × 10^5 cells/well) overnight to make the cells grow adherently and then incubated with a14 (50 µM) for 0, 3, 6, 8, 9, and 12 h. After that, the cells were added to 1 ml DCFH-DA (10 µM) and incubated for 30 min in the dark. After the cells were washed twice by the pre-cooled PBS, the cells were trypsinized and collected by centrifugation. The cells of the blank group were implemented the same experimental procedures, except for the process with a14. Besides, 5 mM N-acetyl-L-cysteine (NAC) was applied as anti-oxidative substance to prevent the oxidation of the cells, which could entirely block the production of ROS induced by a14. The generation levels of ROS were evaluated in fluorescence intensity (FL-1, 530 nm) by Beckman Coulter flow cytometer (Beckman Coulter, Inc. California). The data collected was analyzed using the CytExpert 2.0 software embedded in Beckman flow cytometry, and the histogram was plotted by Origin Pro8.
smiles,measurement,setting,value
COc1cc(/C=C/C(=O)c2ccc(O)c(C(N)=O)c2)cc(OC)c1OC [a14],"JC-1 (FITC), right of the gate line (green fluorescence)",[1]; 48 h (untreated 50.08%),91.94%
same,JC-1 fluorescence colour under the fluorescence microscope,"[1]; 48 h, in words",almost all cells had shown green fluorescence
same,expression of pro-apoptotic proteins (Bax),Bax in HepG2 cells,up-regulated
same,G2/M,HepG2 cells; a14 30 µM,19.07%
same,increase of percentage of G2/M compared with the untreated group,"HepG2 cells; a14 50 µM, 48 h",73.82%
same,G2/M,HepG2 cells; a14 70 µM,79.57%
same,IC50,HL-60,121 ± 3.58 µM
same,intracellular fluorescence intensity (DCFH-DA),ROS level in HepG2 cells,236197.3

# From paper PMC6874057, “Synthesis of Chalcone Derivatives: Inducing Apoptosis of HepG2 Cells via Regulating Reactive Oxygen Species and Mitochondrial Pathway” (Frontiers in Pharmacology, 2019)
